From publication PMC9011219 (Annals of Translational Medicine, 2022)

Columns and labels:
[1] = biological target: BuChE (Equus caballus, UniProt P81908); assay: Ellman assay; assay type: biochemical
[2] = biological target: AChE (Electrophorus electricus, UniProt O42275); assay: Ellman assay; assay type: biochemical
Sequence of AChE (O42275 24-633): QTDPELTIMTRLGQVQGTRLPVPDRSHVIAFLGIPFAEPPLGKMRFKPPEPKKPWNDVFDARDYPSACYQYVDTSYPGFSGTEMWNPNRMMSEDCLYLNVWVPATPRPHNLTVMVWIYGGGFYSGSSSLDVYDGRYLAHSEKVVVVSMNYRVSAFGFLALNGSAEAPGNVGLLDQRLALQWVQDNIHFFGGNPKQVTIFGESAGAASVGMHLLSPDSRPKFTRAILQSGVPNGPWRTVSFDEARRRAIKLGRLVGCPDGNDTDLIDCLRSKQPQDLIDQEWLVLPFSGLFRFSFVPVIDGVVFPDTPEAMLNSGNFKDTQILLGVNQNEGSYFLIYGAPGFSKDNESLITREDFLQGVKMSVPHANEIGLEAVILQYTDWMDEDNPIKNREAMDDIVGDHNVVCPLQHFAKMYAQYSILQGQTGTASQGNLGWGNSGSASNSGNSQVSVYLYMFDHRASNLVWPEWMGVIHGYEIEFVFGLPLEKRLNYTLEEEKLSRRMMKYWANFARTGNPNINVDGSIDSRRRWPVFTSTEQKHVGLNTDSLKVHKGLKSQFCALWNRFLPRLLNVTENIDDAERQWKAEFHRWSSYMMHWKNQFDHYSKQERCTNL

Sequence of BuChE (P81908 whole entry): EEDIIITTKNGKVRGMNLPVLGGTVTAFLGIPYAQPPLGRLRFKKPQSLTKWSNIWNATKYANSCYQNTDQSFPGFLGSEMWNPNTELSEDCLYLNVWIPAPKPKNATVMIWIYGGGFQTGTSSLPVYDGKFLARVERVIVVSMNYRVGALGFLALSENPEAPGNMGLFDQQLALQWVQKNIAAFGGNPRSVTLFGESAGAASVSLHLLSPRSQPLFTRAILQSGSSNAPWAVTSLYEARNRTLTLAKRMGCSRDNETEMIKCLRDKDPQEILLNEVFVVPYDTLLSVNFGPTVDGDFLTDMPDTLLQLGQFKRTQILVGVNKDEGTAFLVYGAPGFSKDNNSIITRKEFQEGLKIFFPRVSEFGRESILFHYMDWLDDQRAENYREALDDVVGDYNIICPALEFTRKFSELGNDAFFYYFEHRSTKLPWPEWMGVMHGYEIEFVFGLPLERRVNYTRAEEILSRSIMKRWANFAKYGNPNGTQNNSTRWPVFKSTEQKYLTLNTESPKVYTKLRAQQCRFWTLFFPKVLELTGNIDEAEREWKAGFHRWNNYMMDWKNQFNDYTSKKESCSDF

SMILES | IC50 [1] | IC50 [2]
O=C(NCCc1c[nH]c2ccccc12)Nc1cccc2cccnc12 [a1, 1-(2-(1H-indol-3-yl)ethyl)-3-(quinolin-8-yl) urea] | 10.3 ± 0.7 µM | 
COc1ccc2[nH]cc(CCNC(=O)Nc3cccc4cccnc34)c2c1 [a2, 1-(2-(5-methoxy-1H-indol-3-yl)ethyl)-3-(quinolin-8-yl) urea] |  | 29.2 ± 1.2 µM
O=C(NCCc1c[nH]c2ccc(O)cc12)Nc1cccc2cccnc12 [a3, 1-(2-(5-hydroxy-1H-indol-3-yl)ethyl)-3-(quinolin-8-yl) urea] | 8.78 ± 0.3 µM | 36.3 ± 0.7 µM
CN(C)C(=O)Oc1ccc2[nH]cc(CCNC(=O)Nc3cccc4cccnc34)c2c1 [a4, 3-(2-(3-(quinolin-8-yl)ureido)ethyl)-1H-indol-5-yl dimethylcarbamate] | 3.3 ± 0.2 µM | 35.6 ± 0.6 µM
CCN(C)C(=O)Oc1ccc2[nH]cc(CCNC(=O)Nc3cccc4cccnc34)c2c1 [a5, 3-(2-(3-(quinolin-8-yl)ureido)ethyl)-1H-indol-5-yl ethyl (methyl) carbamate] | 2.6 ± 0.4 µM | 
O=C(CNc1cccc2cccnc12)NCCc1c[nH]c2ccccc12 [b1, N-(2-(1H-indol-3-yl)ethyl)-2-(quinolin-8-ylamino) acetamide] |  | 11.2 ± 0.4 µM
COc1ccc2[nH]cc(CCNC(=O)CNc3cccc4cccnc34)c2c1 [b2, N-(2-(5-methoxy-1H-indol-3-yl)ethyl)-2-(quinolin-8-ylamino) acetamide] |  | 13 ± 0.2 µM
O=C(CNc1cccc2cccnc12)NCCc1c[nH]c2ccc(O)cc12 [b3, N-(2-(5-hydroxy-1H-indol-3-yl)ethyl)-2-(quinolin-8-ylamino) acetamide] |  | 4.34 ± 0.1 µM
CN(C)C(=O)Oc1ccc2[nH]cc(CCNC(=O)CNc3cccc4cccnc34)c2c1 [b4, 3-(2-(2-(quinolin-8-ylamino)acetamido)ethyl)-1H-indol-5-yl dimethylcarbamate] | 0.9 ± 0.1 µM | 11.2 ± 0.3 µM
CCN(C)C(=O)Oc1ccc2[nH]cc(CCNC(=O)CNc3cccc4cccnc34)c2c1 [b5, 3-(2-(2-(quinolin-8-ylamino)acetamido)ethyl)-1H-indol-5-yl ethyl (methyl) carbamate] | 0.8 ± 0.1 µM | 13.7 ± 0.6 µM
c1cnc2c(NCCc3c[nH]c4ccccc34)cccc2c1 [c1, N-(2-(1H-indol-3-yl)ethyl) quinolin-8-amine] | 13.5 ± 0.4 µM | 32.7 ± 1.4 µM
COc1ccc2[nH]cc(CCNc3cccc4cccnc34)c2c1 [c2, N-(2-(5-methoxy-1H-indol-3-yl)ethyl) quinolin-8-amine] | 4.5 ± 0.3 µM | 
Oc1ccc2[nH]cc(CCNc3cccc4cccnc34)c2c1 [c3, 3-(2-(quinolin-8-ylamino)ethyl)-1H-indol-5-ol] | 4.3 ± 0.4 µM | 
CN(C)C(=O)Oc1ccc2[nH]cc(CCNc3cccc4cccnc34)c2c1 [c4, 3-(2-(quinolin-8-ylamino)ethyl)-1H-indol-5-yl dimethylcarbamate] | 0.9 ± 0.1 µM | 
CCN(C)C(=O)Oc1ccc2[nH]cc(CCNc3cccc4cccnc34)c2c1 [c5, 3-(2-(quinolin-8-ylamino)ethyl)-1H-indol-5-yl ethyl (methyl) carbamate] | 1.1 ± 0.1 µM | 25.1 ± 1.7 µM
